Source: patent US20100261719A1, “CHEMICAL COMPOUNDS” (priority 2007, published 2010)
Where two headings read alike, the source gives them in different places.

Molecular target: Escherichia coli DNA gyrase A/B tetramer (Escherichia coli, UniProt P0AES4+P0AES6)
Test: DNA gyrase supercoiling activity fluorescence polarisation assay
Format: biochemical
Protocol: In a black, 384-well polystyrene assay plate, 30 microliters/well of 5 nM Escherichia coli DNA gyrase A/B tetramer and 130 micrograms/ml of topologically relaxed plasmid containing the triplex-forming sequence […] in an assay buffer consisting of 35 mM Tris-HCl (pH 7.5), 24 mM KCl, 4 mM MgCl2, 2 mM dithiothreitol, 1.8 mM spermidine, 5% (v/v) glycerol, 200 nM bovine serum albumin, 0.8% dimethylsulfoxide, and 0.3 mM ATP may be incubated at ambient temperature for (typically 30 minutes) in the absence or presence of 5-10 different concentrations of test compound. The supercoiling reactions may be quenched by the addition of 10 microliters/well of 40 nM oligodeoxynucleotide probe in 3× triplex-forming buffer consisting of 150 mM NaCl, and 150 mM sodium acetate at pH 3.5. The oligodeoxynucleotide probe may be 5′-BODIPY-FL-labeled TTCTTCTTC. After 60 minutes, the fluorescence anisotropy of the BODIPY-FL may be measured in a Tecan Ultra plate reader, using 485 nm excitation and 535 nm emission filters equipped with polarizers. The IC50 may be determined by nonliner regression using two control reactions. The first contains no test compound but 0.8% DMSO (100% activity) while the second control reaction contains 5 uM Ciprofloxacin and 0.8% DMSO (0% activity).
When tested in an in-vitro assay based on the DNA gyrase supercoiling activity fluorescence polarisation assay described above, the E. coli DNA gyrase supercoiling IC50 assay inhibitory activity of the following Examples was measured at the indicated IC50.

[1] = 5 nM enzyme, 0.3 mM ATP, relaxed plasmid, fluorescence anisotropy readout, read-out: E. coli DNA gyrase supercoiling IC50

Sequence of Escherichia coli DNA gyrase A/B tetramer (P0AES4 whole entry, one chain of several): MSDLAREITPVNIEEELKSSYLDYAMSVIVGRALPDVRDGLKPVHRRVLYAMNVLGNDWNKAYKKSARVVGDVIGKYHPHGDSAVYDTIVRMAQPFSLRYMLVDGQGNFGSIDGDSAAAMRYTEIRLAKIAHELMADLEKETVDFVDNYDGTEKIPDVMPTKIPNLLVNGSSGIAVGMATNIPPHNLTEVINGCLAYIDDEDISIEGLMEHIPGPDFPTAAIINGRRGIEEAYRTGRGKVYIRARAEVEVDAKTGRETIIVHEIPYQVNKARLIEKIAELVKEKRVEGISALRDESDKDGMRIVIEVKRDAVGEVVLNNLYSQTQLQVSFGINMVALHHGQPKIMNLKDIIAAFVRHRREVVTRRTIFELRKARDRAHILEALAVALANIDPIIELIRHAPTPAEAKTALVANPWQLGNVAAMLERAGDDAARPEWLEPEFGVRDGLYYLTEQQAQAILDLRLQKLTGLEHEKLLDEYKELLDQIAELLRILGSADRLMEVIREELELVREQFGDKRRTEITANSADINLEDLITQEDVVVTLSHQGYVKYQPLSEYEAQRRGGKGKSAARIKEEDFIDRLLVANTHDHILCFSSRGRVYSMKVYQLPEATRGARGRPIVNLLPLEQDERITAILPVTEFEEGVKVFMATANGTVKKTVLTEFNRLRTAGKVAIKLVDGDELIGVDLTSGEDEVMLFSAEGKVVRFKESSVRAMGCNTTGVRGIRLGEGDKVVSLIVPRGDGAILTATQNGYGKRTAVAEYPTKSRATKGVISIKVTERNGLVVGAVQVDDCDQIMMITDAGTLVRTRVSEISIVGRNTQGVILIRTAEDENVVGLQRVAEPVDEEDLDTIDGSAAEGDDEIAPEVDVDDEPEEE

Compound | IC50 | IC50 [1]
C/C(=N\NC(=O)C1CC1)c1cc2c(c(F)c1F)N1C[C@@H](C)O[C@@H](C)[C@@H]1C1(C2)C(=O)NC(=O)NC1=O (relative stereo) [Example 56, N′-{(1E)-1-[(2R,4S,4aS)-rel-9,10-Difluoro-2,4-dimethyl-2′,4′,6′-trioxo-1,1′,2,3′,4,4′,4a,6′-octahydro-2′H,6H-spiro[1,4-oxazino[4,3-a]quinoline-5,5′-pyrimidin]-8-yl]ethylidene}cyclopropanecarbohydrazide] | 1870 nM | 
C[C@@H]1CN2c3cc(F)c(C#Cc4nccs4)cc3CC3(C(=O)NC(=O)NC3=O)[C@H]2[C@H](C)O1 (relative stereo) [Example 26, (2R,4S,4aS)-rel-9-Fluoro-2,4-dimethyl-8-(1,3-thiazol-2-ylethynyl)-1,2,4,4a-tetrahydro-2′H,6H-spiro[1,4-oxazino[4,3-a]quinoline-5,5′-pyrimidine]-2′,4′,6′(1′H,3′H)-trione] | 1080 nM | 
C[C@@H]1CN2c3c(cc(C(=O)NC4CCNCC4)c(F)c3F)CC3(C(=O)NC(=O)NC3=O)[C@H]2[C@H](C)O1 (relative stereo) [Example 71, (2R,4S,4aS)-rel-9,10-Difluoro-2,4-dimethyl-2′,4′,6′-trioxo-N-(piperidin-4-yl)-1,1′,2,3′,4,4′,4a,6′-octahydro-2′H,6H-spiro[1,4-oxazino[4,3-a]quinoline-5 ,5′-pyrimidine]-8-carboxamide] | 5970 nM | 
Cc1nnc(C)n1/N=C/c1cc2c(c(F)c1F)N1C[C@@H](C)O[C@@H](C)[C@@H]1C1(C2)C(=O)NC(=O)NC1=O (relative stereo) [Example 47, (2R,4S,4aS)-rel-8-{(E)-[(3,5-Dimethyl-4H-1,2,4-triazol-4-yl)imino]methyl}-9,10-difluoro-2,4-dimethyl-1,2,4,4a-tetrahydro-2′H,6H-spiro[1,4-oxazino[4,3-a]quinoline-5,5′-pyrimidine]-2′,4′,6′(1′H,3′H)-trione] | 3670 nM | 
(2R,4S,4aS)-rel-10-Fluoro-2,4-dimethyl-8-[(1-methyl-1H-imidazol-2-yl)ethynyl]-1,2,4,4a-tetrahydro-2′H,6H-spiro[1,4-oxazino[4,3-a]quinoline-5,5′-pyrimidine]-2′,4′,6(1′H,3′H)-trione [Example 42] |  | 640 nM
C/C(=N\NC(=O)OC(C)(C)C)c1cc2c(c(F)c1F)N1C[C@@H](C)O[C@@H](C)[C@@H]1C1(C2)C(=O)NC(=O)NC1=O (relative stereo) [Example 50, tert-Butyl (2E)-2-{1-[(2R,4S,4aS)-rel-9,10-difluoro-2,4-dimethyl-2′,4′,6′-trioxo-1,1′,2,3′,4,4′,4a,6′-octahydro-2′H,6H-spiro[1,4-oxazino[4,3-a]quinoline-5,5′-pyrimidin]-8-yl]ethylidene}hydrazinecarboxylate] | 2360 nM | 
Cc1nnc(C#Cc2cc(F)c3c(c2)C(=O)C2(CNC(=O)NC2=O)[C@H]2[C@H](C)O[C@H](C)CN32)s1 (relative stereo) [Example 37, (2R,4S,4aS)-rel-10-Fluoro-2,4-dimethyl-8-[(5-methyl-1,3,4-thiadiazol-2-yl)ethynyl]-1,2,4,4a-tetrahydro-2′H,6H-spiro[1,4-oxazino[4,3-a]quinoline-5,5′-pyrimidine]-2′,4′,6(1′H,3′H)-trione] |  | 940 nM
C[C@H]1CN2c3c(cc(C#Cc4c[nH]cn4)c(F)c3F)CC3(C(=O)NC(=O)NC3=O)[C@@H]2[C@@H](C)O1 (relative stereo) [Example 15, (2S,4R,4aR)-rel-9,10-Difluoro-8-(1H-imidazol-4-ylethynyl)-2,4-dimethyl-1,2,4,4a-tetrahydro-2′H,6H-spiro[1,4-oxazino[4,3-a]quinoline-5,5′-pyrimidine]-2′,4′,6′(1′H,3′H)-trione] | 700 nM | 
(2R,4S,4aS)-rel-9,10-Difluoro-2,4-dimethyl-8-[(E)-(morpholin-4-ylimino)methyl]-1,2,4,4a-tetrahydro-2′H,6H-spiro[1,4-oxazino[4,3-a]quinoline-5,5′-pyrimidine]-2′,4′,6(1′H,3′H)-trione [Example 22] |  | 1570 nM
C[C@H]1CN2c3c(cc(C#Cc4cn(C)cn4)c(F)c3F)CC3(C(=O)NC(=O)NC3=O)[C@@H]2[C@@H](C)O1 (racemic) [Example 13, (2S,4R,4aR)-rel-9,10-Difluoro-2,4-dimethyl-8-[(1-methyl-1H-imidazol-4-yl)ethynyl]-1,2,4,4a-tetrahydro-2′H,6H-spiro[1,4-oxazino[4,3-a]quinoline-5,5′-pyrimidine]-2′,4′,6′-(1′H,3′H)-trione] | 2170 nM | 
Cc1nnc(C#Cc2cc3c(c(F)c2F)N2C[C@H](C)O[C@H](C)[C@H]2C2(C3)C(=O)NC(=O)NC2=O)s1 (relative stereo) [Example 5, (2S,4R,4aR)-rel-9,10-Difluoro-2,4-dimethyl-8-[(5-methyl-1,3,4-thiadiazol-2-yl)ethynyl]-1,2,4,4a-tetrahydro-2′H,6H-spiro[1,4-oxazino[4,3-a]quinoline-5,5′-pyrimidine]-2′,4′,6′(1′H,3′H)-trione] | 1880 nM | 
CC(=O)N/N=C/c1cc2c(c(F)c1F)N1C[C@@H](C)O[C@@H](C)[C@@H]1C1(C2)C(=O)NC(=O)NC1=O (relative stereo) [Example 23, N′-{(E)-[(2R,4S,4aS)-rel-9,10-Difluoro-2,4-dimethyl-2′,4′,6′-trioxo-1,1′,2,3′,4,4′,4a,6′-octahydro-2′H,6H-spiro[1,4-oxazino[4,3-a]quinoline-5,5′-pyrimidin]-8-yl]methylidene}acetohydrazide] | 1030 nM | 
C[C@@H]1CN2c3c(cc(C(=O)NC4CCOC4=O)c(F)c3F)CC3(C(=O)NC(=O)NC3=O)[C@H]2[C@H](C)O1 (relative stereo) [Example 61, (2R,4S,4aS)-rel-9,10-Difluoro-2,4-dimethyl-2′,4′,6′-trioxo-N-(2-oxotetrahydrofuran-3-yl)-1,1′,2,3′,4,4′,4a,6′-octahydro-2′H,6H-spiro[1,4-oxazino[4,3-a]quinoline-5,5′-pyrimidine]-8-carboxamide] | 4840 nM | 
C[C@@H]1CN2c3c(cc(C(=O)NC4CCN(c5ccccn5)CC4)c(F)c3F)CC3(C(=O)NC(=O)NC3=O)[C@H]2[C@H](C)O1 (relative stereo) [Example 68, (2R,4S,4aS)-rel-9,10-Difluoro-2,4-dimethyl-2′,4′,6′-trioxo-N-[1-(pyridin-2-yl)piperidin-4-yl]-1,1′,2,3′,4,4′,4a,6′-octahydro-2′H,6H-spiro[1,4-oxazino[4,3-a]quinoline-5,5′-pyrimidine]-8-carboxamide] | 4150 nM | 
C[C@@H]1CN2c3cc(F)c(C#Cc4cncs4)cc3CC3(C(=O)NC(=O)NC3=O)[C@H]2[C@H](C)O1 (relative stereo) [Example 27, (2R,4S,4 aS)-rel-9-Fluoro-2,4-dimethyl-8-(1,3-thiazol-5-ylethynyl)-1,2,4,4a-tetrahydro-2′H,6H-spiro[1,4-oxazino[4,3-a]quinoline-5,5′-pyrimidine]-2′,4′,6′(1′H,3′H)-trione] | 830 nM | 
C[C@@H]1CN2c3c(F)cc(C#Cc4cc5ccccc5s4)cc3CC3(C(=O)NC(=O)NC3=O)[C@H]2[C@H](C)O1 (racemic) [Example 41, (2R,4S,4aS)-rel-8-(1-Benzothiophen-2-ylethynyl)-10-fluoro-2,4-dimethyl-1,2,4,4a-tetrahydro-2′H,6H-spiro[1,4-oxazino[4,3-a]quinoline-5,5′-pyrimidine]-2′,4′,6′(1′H,3′H)-trione] | 7160 nM | 
